# Source: patent US11147807B2, “Pharmaceutical composition containing DUSP1 inhibitor” (INDUSTRY-UNIVERSITY COOPERATION FOUNDATION HANYANG …, priority 2017, dated 2021)
# Read-outs that look alike come from different tables or passages of the source.
# How the values were obtained:
# [1] = target: T1, DUSP1 enzyme (activation domain, amino acid residues 166-316) (Homo sapiens, UniProt P28562); assay: DUSP1 activity inhibitory potency, fluorescence enzyme assay with DiFMUP substrate; assay type: biochemical; settings: 50 nM DUSP1 activation domain, 10 μM DiFMUP, 5% DMSO
# T1 construct: made in house; host or cells: E. coli BL21
# T1 sequence (P28562 166-316): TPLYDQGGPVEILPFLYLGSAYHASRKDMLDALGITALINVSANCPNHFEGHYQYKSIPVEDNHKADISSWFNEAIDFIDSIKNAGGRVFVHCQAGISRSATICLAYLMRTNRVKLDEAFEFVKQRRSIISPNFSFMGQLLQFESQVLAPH
# Procedure: The inhibitory potency of the DUSP1 activity on 8 kinds of the compounds screened in Example 1 was measured.
# As the assay buffer, 20 mM Tris-HCl (pH 8.0), 0.01% Triton X-100 and 5 mM DTT were used, and a fluorescent substrate of 6,8-difluoro-4-methylumbelliferyl phosphate (DiFMUP) 10 μM was used as the substrate. The DUSP1 enzyme was expressed and purified from the activation domain (amino acid residues 166-316) and was used at 50 nM concentration in the enzyme reaction.
# The expression and purification of the activation domain was carried out in the following manner. The DUSP1 activation domain (amino acid residues 166-316) was cloned into the pET28a (Novagen) vector and expressed in E. coli BL21 strain. The E. coli transformed with the expression vector of the DUSP1 activation domain was promoted with 0.1 mM of IPTG (isopropyl β-D-1-thiogalactopyranoside) at 37° C. The E. coli expressed with the DUSP1 activation domain was purified using a nickel affinity column after being crushed with a sonicator. The purified protein was quantified by the Bradford assay and used for the enzyme reaction.
# The fluorescence generated by the enzymatic action was measured using a Victor spectrofluorometer (PerkinElmer) with an excitation/emission wavelength of 355 nm/460 nm. From the obtained results, the intermediate suppression value (IC50) was determined according to a 4-parameter logistic method of the Sigmaplot program package (Systat software Inc.), and the measurement results of the DUSP1 enzyme activity inhibitory potency were shown in Table 2 below.
# [2] = test system: human liver cancer cell line Hep3B; assay: MTT analysis of liver cancer cell growth inhibition; assay type: cell-based; settings: 96 hours, unit assumed
# Procedure: (§1) The MTT analysis was performed to confirm the potency of inhibiting the growth of liver cancer cells of the DUSP1 inhibitor compound of the present invention.
# (§2) A human liver cancer cell line Hep3B was cultured in DMEM, 10% FBS, 1% Anti-anti (Gibco) and prepared in a 96-well plate at a density of 7,000 cells/well. A normal hepatocyte line BNL-CL2 cell was cultured in DMEM, 10% FBS, 1% Anti-anti (Gibco) and prepared in a 96-well plate at a density of 3,000 cells/well.
# (§3) After incubating at 37° C. for 15 hours, Compounds 6 to 8 were treated at the time of medium exchange so that final concentrations of the compounds in the medium become 2.5 μM and 5.0 μM, respectively, and the treatment conditions were adjusted so that the final DMSO concentration in the medium after treatment of the compounds can be maintained to 0.5%.
# (§4) After 96 hours, a cell growth rate was measured using the Roche Cell […] Assay I (MTT) Kit. 10 μL of the MTT solution was added to each of 100 μL wells to a final concentration of 0.5 mg/ml, and then incubated at 37° C. for 4 hours and 100 μL of the solubilization buffer provided in the Kit was added.
# [3] = test system: normal hepatocyte line BNL-CL2; assay: MTT analysis on normal hepatocyte line; assay type: cell-based; settings: 96 hours; for cell growth rate (MTT), BNL-CL2 cell line, compound concentration 5.0 μM: BNL-CL2, 5.0 μM, unit assumed
# Procedure: as §1, §2, §3, §4
# PC12 neuron = assay: Neurite outgrowth assay with NGF; assay type: cell-based; settings: PC12, phase contrast microscope, 72 hours
# Procedure: The Neurite outgrowth assay was carried out with PC12 neuron by appropriately modifying the protocol described in Ishima et al., (2015) Potentiation of neurite outgrowth by brexpiprazole, a novel serotonin-dopamine activity modulator: A role for serotonin 5-HT1A and 5-HT2A receptors. Eur. Neuropsychopharm. 25, 505-511.
# The PC12 neurite cells were distributed by the Korea Cell Line Bank (Seoul National University in Korea) and prepared in a 96-well plate at a density of 7,000 cells/well. The cell culture was performed in Dulbeco's Modified Eagle's Media (DMEM), 10% FBS and 1% Anti-anti (Gibco).
# [4] = test system: human liver cancer cell line Hep3B xenograft; assay: Xenograft assay for tumor suppression; assay type: in vivo; settings: Hep3B xenograft in nude mouse, two intratumoral doses 4 days apart, measured 4 days after second dose; FIG. 4
# Procedure: Using a xenograft assay method, it was confirmed whether the DUSP1 inhibitor of the present invention has the potency of inhibiting the cell growth of a liver cancer.
# A human liver cancer cell line Hep3B of 1×10^7 was injected into the subcutaneous layer of the back of a nude mouse in DMEM medium, and then when the cell line was 200 to 500 mm^3 in size, it was extracted and inserted into the subcutaneous layer of the back of a new nude mouse in the size of 5×5×5 mm.
# The primary and secondary compounds 7 were administered intratumorally at concentrations of 3 μg and 6 μg, respectively, and the primary and secondary compounds 8 were administered intratumorally at concentrations of 2 μg and 4 μg, respectively.
# [5] = target: T1, DUSP1 enzyme (activation domain, amino acid residues 166-316); settings: comparison value quoted in text; read-out: IC50 value of known selective DUSP1 inhibitor; cited from earlier work
Structure (SMILES),IC50 [1] [µM],"cell growth rate (MTT), BNL-CL2 cell line, compound concentration […] [3]",further results
CC(C)C(=O)c1c(Nc2cc(Cl)cc(Cl)c2)[nH]c2c(Cl)ccc([N+](=O)[O-])c2c1=O [Compound 1],5.1,,
CC(=O)c1c(Nc2ccc(Cl)cc2Cl)[nH]c2c(Cl)ccc(F)c2c1=O [Compound 3],7.5,,
CC(=O)c1c(Nc2ccc(Br)cc2Br)[nH]c2c(Cl)ccc(F)c2c1=O [Compound 4],6.1,,
O=C(c1c(Nc2cc(Cl)cc(Cl)c2)[nH]c2c(Cl)ccc([N+](=O)[O-])c2c1=O)C1CC1 [Compound 5],4.1,,
CC(=O)c1c(Nc2cc(C(F)(F)F)cc(C(F)(F)F)c2)[nH]c2c(Cl)ccc(F)c2c1=O [Compound 6],4.2,111,"cell growth rate (MTT), HEP3B cell line, compound concentration 5.0 μM [2]: 14%; cell growth rate (MTT), BNL-CL2 cell line, compound concentration 5.0 μM [3]: 8%; induction of neurite outgrowth (PC12 neuron): shape of neurites stretching from the cell can be confirmed"
CC(C)CC(=O)c1c(Nc2cc(Cl)cc(Cl)c2)[nH]c2c(Cl)ccc([N+](=O)[O-])c2c1=O [Compound 7],3.5,156,tumor size reduction [4]: about 70%
CC(C)CC(=O)c1c(Nc2cccc(Cl)c2Cl)[nH]c2c(Cl)ccc([N+](=O)[O-])c2c1=O [Compound 8],4.8,139,"cell growth rate (MTT), HEP3B cell line, compound concentration 5.0 μM [2]: 16%; cell growth rate (MTT), BNL-CL2 cell line, compound concentration 5.0 μM [3]: 54%; tumor size reduction [4]: about 85%"
C[n+]1cc2c3c(ccc2c2ccc4cc5c(cc4c21)OCO5)OCO3 [Sanguinarin],,,IC50 [5]: 10 µM
